In brackets after ≈: the same amount, converted by molar mass.
Legend:
[1] = Brain free fraction by equilibrium dialysis in rat brain tissue homogenate; type: in vitro ADME; conditions: 10% rat brain tissue homogenate, Tables 2 and 3
Experimental: The extent to which compounds modulate SK2 channels in vivo is expressed as % SK2 SC100, which is the ratio of the concentration of the drug free in the brain to the measured potency of the compound on the SK2 channel. It is calculated as follows: CFB=CMB×BFF, where CMB is the concentration of compound measured by liquid chromatography mass spectrometry from brains harvested immediately following tremor recording (Table 1, “Measured Brain Concentration”). CFB is the amount of free compound not complexed with protein and therefore free to interact with the SK2 channel (Table 1, “Calculated Free Brain Concentration”). BFF is average free fraction of compound as measured by equilibrium dialysis in separate experiments (1 uM test concentration incubated in 10% rat brain tissue homogenate for 5 hours at 37° C.) (Table 1, “Brain Free Fraction”). Free drug in brain available to interact with SK2 channels (CFB) is arrived at by multiplying the measured total brain level (CMB) by the average free fraction (BFF).

[2] = Aqueous (kinetic) solubility, shake-flask, phosphate buffer pH 7.4; type: physicochemical; conditions: 23 °C, kinetic from dmso stock, phosphate buffer pH 7.4, 16 hours at room temperature
Experimental: Aqueous solubility (kinetic solubility) tests of the compounds were performed in phosphate buffer saline (pH 7.4) measured by shake-flask method. In this assay, DMSO stock solution of test compound is added to buffer followed by equilibration (shaking), filtration and determination of soluble amount by HPLC-UV Conditions used in the assay are summarized below.

SK2 channels = molecular target: T1, SK2 channels (Homo sapiens, UniProt Q9H2S1); assay: Whole-cell patch-clamp of SK2 current in HEK293 cells expressing SK2 channels; type: cell-based; conditions: Table 2; concentration that produces doubling of channel current; averages from later experiments
T1 construct: expressed in transfected cells; host or cells: HEK293
Experimental: The biological activity was determined as follows. The ionic current through small-conductance Ca^2+-activated K^+ channels (SK channels, subtype 2) was measured using the whole-cell configuration of the patch-clamp technique in a patch-clamp set-up using HEK293 tissue culture cells expressing SK2 channels as described in Hougaard et al., British Journal of Pharmacology 151, 655-665, May 8, 2007, the entire teachings of which are incorporated herein by reference. In one aspect, a compound is defined to be an SK Positive Allosteric Modulator (PAM) if the compound increases current in this assay, for example, if the SC100 value of the compound is less than or equal to 10 μM as determined by this assay. The SC100 value is defined to be the concentration of compound that increases the basal current by 100%.

Row | Compound | fraction unbound at 5 h, 1 uM [1] | solubility kinetic at 16 h [2] | SK2 potency (SC100) (SK2 channels)
1 | Cc1csc(-c2nc(NC3CCC(F)(F)CC3)cc([C@H](C)O)n2)n1 (single isomer, unassigned) [Compound 5] | 0.042 | 80.3 µg/mL (≈ 227 µM) | –
2 | Cc1csc(-c2nc(NC3CCC(F)(F)CC3)cc([C@@H](C)O)n2)n1 (single isomer, unassigned) [Compound 6] | 0.0431 | 66.7 µg/mL (≈ 188 µM) | –
3 | Cc1ccn(-c2nc(N[C@@H]3CCCC[C@H]3F)cc(N3CCOCC3)n2)n1 [Comparator B, reference compound] | – | – | 5.8 µM
4 | Cc1cc(C)n(-c2nc(Nc3ccc(Cl)cc3)cc(N3CCOCC3)n2)n1 [Comparator C, reference compound] | 0.0016 | 1 µg/mL (≈ 2.6 µM) | –
5 | COc1cc(NC2CCC(F)(F)CC2)nc(-n2nc(C)cc2C)n1 [Compound 2, N-(4,4-difluorocyclohexyl)-2-(3,5-dimethyl-1H-pyrazol-1-yl)-6-methoxypyrimidin-4-amine] | 0.0276 | 31 µg/mL (≈ 91.9 µM) | –
6 | COc1cc(NC2CCC(F)(F)CC2)nc(-c2nc(C)cs2)n1 [Compound 3, N-(4,4-difluorocyclohexyl)-6-methoxy-2-(4-methylthiazol-2-yl) pyrimidin-4-amine] | 0.0269 | 70.9 µg/mL (≈ 208 µM) | –
7 | FC1(F)CCC(Nc2cc(N3CCOCC3)nc(-n3ccc(C4CC4)n3)n2)CC1 [Compound 7, 2-(3-cyclopropyl-1H-pyrazol-1-yl)-N-(4,4-difluorocyclohexyl)-6-morpholinopyrimidin-4-amine] | 0.0155 | 49.7 µg/mL (≈ 123 µM) | –
